2-AG accumulation, % of vehicle control data for 13 molecules are collected here from patent publication US8362000B2, “Azetidinyl diamides as monoacylglycerol lipase inhibitors” (Janssen Pharmaceutica NV, priority 2009, dated 2013).

The structures appear in SMILES notation.

The target of the first assay is T1, MGL (Rattus norvegicus, UniProt Q8R431).
T1 construct: one g rat brain was homogenized using a Polytron homogenizer; from tissue; host or cells: rat brain homogenate
T1 sequence (Q8R431 1-303): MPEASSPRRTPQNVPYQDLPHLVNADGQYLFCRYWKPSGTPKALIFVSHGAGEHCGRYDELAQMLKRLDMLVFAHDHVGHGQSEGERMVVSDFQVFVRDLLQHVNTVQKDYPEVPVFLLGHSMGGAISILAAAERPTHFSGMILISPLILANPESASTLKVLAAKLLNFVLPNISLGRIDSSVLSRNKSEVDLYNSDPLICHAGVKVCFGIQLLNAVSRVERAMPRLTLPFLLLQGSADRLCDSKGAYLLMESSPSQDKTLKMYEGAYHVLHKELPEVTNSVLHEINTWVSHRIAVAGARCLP
Description: 2-AG accumulation assay in rat brain homogenate. Format: biochemical. To be noted: rat brain homogenate; compound 1 μM; 2-AG accumulation as percent of vehicle; read-out: Rat Brain 2AG % VehCntrl (%) @ 1 μM.
For the molecule `O=C(c1ccc2c(c1)ncn2-c1ccc(C(F)(F)F)cc1)N1CC(N2CCN(C(=O)c3nccs3)CC2)C1` [Cpd 1064, 5-({3-[4-(1,3-Thiazol-2-ylcarbonyl)piperazin-1-yl]azetidin-1-yl}carbonyl)-1-[4-(trifluoromethyl)phenyl]-1H-benzimidazole], the 2-AG accumulation, % of vehicle control at 1 µM is 570%.

Regarding `O=C(c1ccccc1)N1CCN(C2CN(C(=O)c3ccc4c(ccn4-c4ccc(F)cc4F)c3)C2)CC1` [Cpd 579, 1-(2,4-Difluorophenyl)-5-({3-[4-(phenylcarbonyl)piperazin-1-yl]azetidin-1-yl}carbonyl)-1H-indole], the 2-AG accumulation, % of vehicle control at 1 µM was 265%.

On to `O=C(c1ccc2c(c1)CCN(S(=O)(=O)c1ccccc1)C2)N1CC(N2CCN(C(=O)c3nccs3)CC2)C1` [Cpd 927], for which the 2-AG accumulation, % of vehicle control at 1 µM amounted to 850%.

On to `O=C(c1ccc2c(c1)CCN(S(=O)(=O)C1CCCCC1)C2)N1CC(N2CCN(C(=O)c3nccs3)CC2)C1` [Cpd 906], for which the 2-AG accumulation, % of vehicle control at 1 µM came out at 896%.

For the molecule `O=C(c1ccccc1)N1CCN(C2CN(C(=O)c3ccc4c(ccn4-c4ncccn4)c3)C2)CC1` [Cpd 595, 5-({3-[4-(Phenylcarbonyl)piperazin-1-yl]azetidin-1-yl}carbonyl)-1-pyrimidin-2-yl-1H-indole], the 2-AG accumulation, % of vehicle control at 1 µM worked out at 128%.

The assay is the same for the next values; noted with them: rat brain homogenate; compound 10 μM; 2-AG accumulation as percent of vehicle; read-out: Rat Brain 2AG % VehCntrl (%) @ 10 μM.
As to `CC(C)COc1cccc(-c2ccc(C(=O)N3CC(N4CCN(C(=O)c5nccs5)CC4)C3)cc2)c1` [Cpd 221, 1-(1-{[3′-(2-Methylpropoxy)biphenyl-4-yl]carbonyl}azetidin-3-yl)-4-(1,3-thiazol-2-ylcarbonyl)piperazine], the 2-AG accumulation, % of vehicle control at 10 µM was determined as 945%.

In the case of `CC(C)(C)OC(=O)N1CCc2cc(C(=O)N3CC(N4CCN(C(=O)c5ccccc5)CC4)C3)ccc2C1` [Cpd 319, tert-Butyl 6-({3-[4-(phenylcarbonyl)piperazin-1-yl]azetidin-1-yl}carbonyl)-3,4-dihydroisoquinoline-2(1H)-carboxylate], the 2-AG accumulation, % of vehicle control at 10 µM is 396%.

With `CC(C)(C)OC(=O)Nc1cccc(-c2ccc(C(=O)N3CC(N4CCN(C(=O)c5nccs5)CC4)C3)cc2)c1` [Cpd 220, tert-Butyl [4′-({3-[4-(1,3-thiazol-2-ylcarbonyl)piperazin-1-yl]azetidin-1-yl}carbonyl)biphenyl-3-yl]carbamate], the 2-AG accumulation, % of vehicle control at 10 µM worked out at 993%.

On to `Cc1ccc(-c2nc(C)c(C(=O)N3CC(N4CCN(C(=O)c5nccs5)CC4)C3)s2)cc1` [Cpd 135, 1-(1-{[4-Methyl-2-(4-methylphenyl)-1,3-thiazol-5-yl]carbonyl}azetidin-3-yl)-4-(1,3-thiazol-2-ylcarbonyl)piperazine], for which the 2-AG accumulation, % of vehicle control at 10 µM was 592%.

For the molecule `COC(=O)C=Cc1ccc(-c2ccc(C(=O)N3CC(N4CCN(C(=O)c5nccs5)CC4)C3)cc2)cc1` [Cpd 224, Methyl 3-[4′-({3-[4-(1,3-thiazol-2-ylcarbonyl)piperazin-1-yl]azetidin-1-yl}carbonyl)biphenyl-4-yl]prop-2-enoate], the 2-AG accumulation, % of vehicle control at 10 µM is 906%.

Turning to `O=C(c1ccccc1)N1CCN(C2CN(C(=O)c3ccc(-c4cccc(F)c4)cc3)C2)CC1` [Cpd 195, 1-{1-[(3′-Fluorobiphenyl-4-yl)carbonyl]azetidin-3-yl}-4-(phenylcarbonyl)piperazine], the 2-AG accumulation, % of vehicle control at 10 µM was found to be 365%.

For `O=C(c1ccccc1)N1CCN(C2CN(C(=O)c3ccc4c(ccn4-c4ccccc4)c3)C2)CC1` [Cpd 128, 1-Phenyl-5-({3-[4-(phenylcarbonyl)piperazin-1-yl]azetidin-1-yl}carbonyl)-1H-indole], the 2-AG accumulation, % of vehicle control at 10 µM amounted to 688%.

For the molecule `COc1cccc(-c2ccc(C(=O)N3CC(N4CCN(C(=O)c5nccs5)CC4)C3)cc2)c1` [Cpd 180, 1-{1-[(3′-Methoxybiphenyl-4-yl)carbonyl]azetidin-3-yl}-4-(1,3-thiazol-2-ylcarbonyl)piperazine], the 2-AG accumulation, % of vehicle control at 10 µM was 703%.
